Assay results from article PMC10193983 (Proceedings of the National Academy of Sciences of the …, 2023).

Molecular target: MnMT4
Assay: biolayer interferometry
Type: binding, Mycolicibacterium neoaurum

Kd [µM] | Structure (SMILES)
0.0291 | Nc1ncnc2c1ncn2[C@@H]1O[C@H](CSCC[C@H](N)C(=O)O)[C@@H](O)[C@H]1O [SAH]
18.4 | C[S+](CC[C@H](N)C(=O)[O-])C[C@H]1O[C@@H](n2cnc3c(N)ncnc32)[C@H](O)[C@@H]1O (some centres unmarked) [SAM]
